Columns and labels:
[1] = tested on: P. aeruginosa and E. coli biofilms; assay: Transmitted light microscopy of biofilms; assay type: cell-based, Pseudomonas aeruginosa, Escherichia coli; settings: 100 µM, all the tested strains, crystal violet, 40×
Description: For imaging, bacteria were allowed to adhere and form microcolonies on coverslips. Briefly, 5 mL of diluted cultures (10^6 CFU/mL) of P. aeruginosa and E. coli was added to 6-well plates containing glass coverslips (22 mm × 22 mm). The plates were incubated at 37 °C without shaking for 2 h. Thereafter, bacterial suspensions were removed, and the wells were washed once with PBS. Fresh LB with and without the lead compounds at a final concentration of 100 µM was added to the wells, and the plates were incubated at 37 °C for 22 h. At the end of 24 h, coverslips were rinsed three times with MQ-water and air dried followed by staining with 0.23% (v/v) crystal violet solution. Coverslips were allowed to dry and visualized under a Transmitted Light Microscope (EVOS® XL Imaging System, InvitrogenTM, Thermo Fisher Scientific, San Jose, CA, USA) at a magnification of 40×.

P. aeruginosa PAO1 = assay: Swimming motility assay; assay type: cell-based; settings: Pseudomonas aeruginosa, highest test concentration (400 µM)
Description: Assays were performed according to the protocols previously described in [30, 74] with some modifications. The swarming agar was prepared in MQ-water consisting of 0.3% (w/v) agar, 1% (w/v) peptone, 0.5% (w/v) yeast extract and 0.5% (w/v) sodium chloride, and the swimming agar similarly but without yeast extract. Compounds at a final concentration of 400 µM and 100 µM were pre-mixed with 5 mL of agar, and poured over solidified LB agar plates (10 mL/petri dish) as overlays. The plates were allowed to dry at 30 °C for three hours followed by point inoculation with 2 µL of P. aeruginosa PAO1 (~10^8 CFU/mL) and incubation at 37 °C for 18 h. Quercetin was used as a control. Diameters of the swarming and swimming zones were measured after the incubation periods.

E. coli K-12 = assay: Viable plate counts (bacterial growth); assay type: cell-based, Escherichia coli; settings: 100 and 400 µM, 24 h
Description: Effects of the leads on bacterial growth were assessed by performing viable plate counts. Compounds at final concentrations of 100 and 400 µM and cultures of P. aeruginosa (ATCC 9027, ATCC 15422 and PA01) and E. coli K-12 (10^6 CFU/mL) were simultaneously added to the 96-microtiter well plates (200 µL per well). Untreated bacteria were included in control wells. The plates were incubated at 37 °C, without shaking for 24 h. At the end of this period, bacterial suspensions were transferred from the wells to Eppendorf tubes, and the tubes were sonicated for 10 min (25 °C, 35 kHz, Sonorex Digitec water bath (Bandelin, Zurich, Switzerland)). Each suspension was serially diluted in LB and plated on LB agar. The number of viable bacteria in each test concentration was counted after overnight incubation at 37 °C. Results were expressed as CFU/mL.

[2] = tested on: human lung (HL) epithelial cells; assay: Cytotoxicity testing (CellTiter Glo); assay type: cell-based; settings: 24 h exposure
Description: (§1) Human lung (HL) epithelial cells were grown in RPMI 1640 (Biowhittaker, Lonza, Viewers, Bornem, Belgium) supplemented with 10% inactivated fetal bovine serum (FBS), 2 mM L-glutamine and gentamycin 20 µg/mL, and mouse monocyte macrophage RAW 264.7 cells in DMEM medium supplemented with 10% FBS and 20 µg/mL gentamycin. Cells (3 × 10^5 cells/mL) were seeded into 96-microtiter well plates (Cellstar TC, Greiner Bio-One GmbH, Frickenhausen, Germany), 200 µL per well, and incubated at 37 °C in 5% CO2 24 h before exposure to the compounds. After the incubation, culture medium was discarded, the wells were washed with PBS, and the compound dilutions prepared in culture media were added as triplicates to a final volume of 200 µL. Usnic acid (200 µM, Sigma Aldrich, St. Louis, MO, USA) was included as positive control and DMSO (1%) as solvent control. Plates were incubated for additional 24 h. At the end of 24 h, media was removed, wells were washed twice with PBS and 100 µL of PBS was added. CellTiter Glo® reagent (Promega, Madison, WI, USA) was prepared according to manufacturer’s instructions, and 100 µL was added to the wells. The plates were shaken for two minutes and equilibrated at room temperature for 10 min prior to measuring the luminescence using Varioskan LUX multimode plate reader (Thermo Scientific, Vantaa, Finland). Inhibition of cell viability was calculated in relation to the untreated cells.

[3] = tested on: mouse monocyte macrophage (RAW 264.7) cells; assay: Cytotoxicity testing (CellTiter Glo); assay type: cell-based; settings: 24 h exposure
Description: as §1

C. violaceum ATCC 31532 = assay: Violacein extraction assay (QS-mediated violacein production); assay type: cell-based; settings: Chromobacterium violaceum, ATCC31532, 40 µM, C. violaceum ATCC 31532, mean ± SD of three independent tests; read-out: Inhibition-% of violacein production
[4] = tested on: RhlI/RhlR controlled rhamnolipid biosynthesis in P. aeruginosa; design: method as in ref 73 = [73]; 73. Manner S. Fallarero A. Abo Akademi University and University of Helsinki, Finland Evaluation of the Effects of the Leads in Rhamnolipid Biosynthesis Personal communication 2017; settings: personal communication ref 73; cited from earlier work
C. violaceum = tested on: C. violaceum; design: method as in PMID 27626397; settings: cited from earlier work

Row | Structure (SMILES) | Effect on biofilm structure and formation [1] | inhibition at 400 µM (P. aeruginosa PAO1) [%] | Bactericidal activity by viable plate counts (E. coli K-12) | Inhibition-% of cell viability ([2]; 10 µM) | Inhibition-% of cell viability ([2]; 40 µM) | Inhibition-% of cell viability ([2]; 100 µM) | Inhibition-% of cell viability ([3]; 10 µM) | Inhibition-% of cell viability ([3]; 40 µM) | inhibition at 40 µM (C. violaceum ATCC 31532) [%] | Effect on rhamnolipid biosynthesis [4] | Anti-QS activity class in earlier screening (C. violaceum) | Inhibition-% of cell viability ([3]; 100 µM)
1 | CCC(=O)Oc1c(-c2ccccc2Cl)oc2ccccc2c1=O [Compound 2117, 2-(2-chlorophenyl)-4-oxochromen-3-yl propanoate] | alteration of biofilm structure and reduced biofilm formation | 28.1 | Neither of the leads displayed any bactericidal activity | N.I. | N.I. | 11.2 ± 4.9% | N.I. | N.I. | > 90 | did not affect | among the most active compounds | 
2 | CCCCCCCCCC(=O)Oc1c(-c2ccc(OC)cc2)oc2ccccc2c1=O [Compound 2896, 2-(4-methoxyphenyl)-4-oxochromen-3-yl decanoate] | alteration of biofilm structure and reduced biofilm formation | 33.9 | Neither of the leads displayed any bactericidal activity | N.I. | N.I. | did not display any effects on the cell viability and N.I. | N.I. | N.I. | 83.5 ± 1.4 | did not affect |  | did not display any effects on the cell viability and N.I.
